As usually defined, the IC50 is the midpoint of a concentration-inhibition curve.

Twelve compounds from US11691962B2 (eXIthera Pharmaceuticals, Inc., priority 2018, dated 2023) can be followed below.

A value given as a limit tells only on which side of the number the result lay.

What all share (assay type): biochemical
In one assay the test system is Trypsin. As to the kind of experiment: Dose response assay for protease inhibitors: trypsin. As to conditions: selectivity, trypsin over Factor XIa. Here is the method:
(§1) • Assay buffer: 20 mM Hepes, pH 7.4; 150 mM NaCl; 0.02% Tween 20 • Compounds: 10 mM stocks in DMSO • Substrate: 20 mM Glp-Pro-Arg-AMC, 25 mg/2.3 mL H2O (store at +4° C.) [Factor XIa, thrombin, and trypsin] • 20 mM Pro-Phe-Arg-AMC (Bachem I-1295), 25 mg/2.2 mL H2O • or Boc-Leu-Gly-Arg-AMC (Bachem I-1105), 25 mg/2.07 mL H2O • (store at +4° C.) [Factor Xa] • Enzyme: Factor XIa; 0.25 μM in 50% glycerol (20 μg/mL) • Trypsin; 0.2 μM in 50% glycerol (4.8 μg/mL) • Thrombin; 0.2 μM in 50% glycerol (7.34 μg/mL) • Factor Xa; 0.2 μM in 50% glycerol (9.2 μg/mL) • These stocks are aliquoted (˜100 μL/aliquot) and stored at −20° C. Methods: • 1. Dilute the substrate to 100 μM in assay buffer (30 μL/6 mL). The enzyme is diluted to 0.5 nM just prior to use (12 μL/6 mL for Factor XIa; 15 μL/6 mL for all of the rest.) • 2. Pipette 50 μL of substrate into each well of the 96 well (12×8) microtiter plate. (Column 1 is used as the 100% activity control and receives no compound, and Column 12 is the blank and receives no enzyme.) Add an additional 46 μL to column 2. • 3. Pipette 4 μL of each compound into the appropriate well in column 2 of the plate (unknowns assayed in triplicate, standard assayed in duplicate). The final compound concentration will be […] of the stock. • 4. Serially two-fold dilute the compound by mixing the sample in column 2, removing 50 μL to the next well (column 3), mix and remove to column 4, etc. until column 11. After mixing column 11, remove 50 μL and discard. • 5. Pipette 50 μL of buffer into column 12. Initiate the reaction by adding 50 μL of enzyme solution to each well of columns 1-11 as rapidly as possible. • 6. Read the plate in a spectrophotometer (SpectraMax) at 30° C., wherein each well is measured every 60 s for 30 min. For Factor Xa assays, each well is measured every 1 min for a total of 60 min. • 7. For Factor XIa assays, the compounds are assayed, in duplicate, at 3 different starting concentrations, 20, 2, and 0.2 μM; 1:10, 1:100, and 1:1000 dilution of 10 mM stock or at 2, 0.2, and 0.02 μM; 1:100, 1:1000, and 1:10,000 dilution of 10 mM stock. Data for each concentration are combined for graphing and data fitting. • 8. Data can be used both for estimation of IC50 and for estimation of Kon.

In the next assay the target is Factor XIa (Homo sapiens (Human), UniProt P03951). As to the kind of experiment: Factor XIa enzyme inhibition assay (dose response, fluorogenic AMC substrate). As to conditions: read-out: hFXIa IC50. Put shortly:
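Fluorogenic progress curves (30 min, 1-min reads, 30° C) were recorded for 0.25 nM FXIa cleaving 50 μM Glp-Pro-Arg-AMC in Hepes pH 7.4 buffer with NaCl and Tween 20. Compounds were serially two-fold diluted, and IC50 was fitted with a Hill equation.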

Another assay has as its target Factor Xa (Homo sapiens (Human), UniProt P00742). As to the kind of experiment: Dose response assay for protease inhibitors: Factor Xa. Conditions: selectivity, Factor Xa over Factor XIa. Here is the method:
as §1

Another assay deals with Thrombin (Homo sapiens (Human), UniProt P00734). As to the kind of experiment: Dose response assay for protease inhibitors: thrombin. Conditions: selectivity, thrombin over Factor XIa. Here is the method: as §1

Chain of Factor XIa (P03951 388-625): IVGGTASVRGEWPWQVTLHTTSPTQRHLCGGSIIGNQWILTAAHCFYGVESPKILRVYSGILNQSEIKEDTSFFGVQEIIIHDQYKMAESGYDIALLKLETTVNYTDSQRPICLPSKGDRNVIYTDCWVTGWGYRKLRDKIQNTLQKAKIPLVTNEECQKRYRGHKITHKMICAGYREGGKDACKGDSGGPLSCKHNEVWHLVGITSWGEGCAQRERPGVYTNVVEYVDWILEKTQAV
Chain of Factor XIa (P03951 19-387 partner): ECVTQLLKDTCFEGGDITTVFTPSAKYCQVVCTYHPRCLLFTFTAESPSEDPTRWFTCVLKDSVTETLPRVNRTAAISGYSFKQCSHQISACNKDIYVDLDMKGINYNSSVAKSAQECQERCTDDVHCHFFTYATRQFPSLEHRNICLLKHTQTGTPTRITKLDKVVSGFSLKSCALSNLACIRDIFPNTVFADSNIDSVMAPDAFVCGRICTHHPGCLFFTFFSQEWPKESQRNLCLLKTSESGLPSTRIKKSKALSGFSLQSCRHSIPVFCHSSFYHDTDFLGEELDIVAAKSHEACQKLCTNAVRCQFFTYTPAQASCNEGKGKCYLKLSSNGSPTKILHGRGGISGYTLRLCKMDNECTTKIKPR
Chain of Factor Xa (P00742 235-488): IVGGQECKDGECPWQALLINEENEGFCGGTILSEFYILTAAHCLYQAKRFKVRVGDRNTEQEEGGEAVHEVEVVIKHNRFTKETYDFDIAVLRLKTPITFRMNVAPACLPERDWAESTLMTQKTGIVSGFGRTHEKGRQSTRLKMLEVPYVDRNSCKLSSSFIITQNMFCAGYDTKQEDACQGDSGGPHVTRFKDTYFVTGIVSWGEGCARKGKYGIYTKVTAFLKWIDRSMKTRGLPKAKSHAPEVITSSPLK
Chain of Factor Xa (P00742 41-179 partner): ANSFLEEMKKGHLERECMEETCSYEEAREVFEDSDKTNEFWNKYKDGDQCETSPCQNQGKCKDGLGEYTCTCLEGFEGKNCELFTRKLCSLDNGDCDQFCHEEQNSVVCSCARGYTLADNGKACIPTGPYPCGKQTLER

On to `CCc1cccc([C@@H](CC)NC(=O)N2C(=O)[C@H](Cc3ccnc(N)c3)[C@H]2C(=O)N(C)c2cnn(C)c2)c1` [Compound 1-16, (2S,3R)-3-((2-aminopyridin-4-yl)methyl)-N2-(1-methyl-1H-pyrazol-4-yl)-N1-((R)-1-(3-ethylphenyl)propyl)-N2-methyl-4-oxoazetidine-1,2-dicarboxamide], for which the “Ratio: Trypsin/FXIa” value with Trypsin was “G (“G” indicates 1-100)”. For the same compound, at Factor XIa, the IC50 is below 0.01 µM. Also, on Factor Xa, the “Ratio: FXa/FXIa” value is “H (“H” indicates 101-1000)”. The “Ratio: Thrombin/FXIa” value at Thrombin is reported as “G (“G” indicates 1-100)”.

Regarding `CC[C@@H](NC(=O)N1C(=O)[C@H](Cc2ccnc(N)c2)[C@H]1C(=O)N(C)c1cnsc1)c1ccccc1` [Compound 1-19, (2S,3R)-3-((2-aminopyridin-4-yl)methyl)-N2-(4-isothiazolyl)-N1-((R)-1-phenylpropyl)-N2-methyl-4-oxoazetidine-1,2-dicarboxamide], the “Ratio: Trypsin/FXIa” value in the assay on Trypsin was “G (“G” indicates 1-100)”. Also, the concentration for half-maximal inhibition (IC50) on Factor XIa was below 0.01 µM. Besides, at Factor Xa, the “Ratio: FXa/FXIa” value was “H (“H” indicates 101-1000)”. Also, the “Ratio: Thrombin/FXIa” value on Thrombin is reported as “G (“G” indicates 1-100)”.

For the compound `CC[C@@H](NC(=O)N1C(=O)[C@H](Cc2ccnc(N)c2)[C@H]1C(=O)N(C)c1cn(C)cn1)c1cccc(Cl)c1` [Compound 1-25, (2S,3R)-3-((2-aminopyridin-4-yl)methyl)-N2-(1-methyl-1H-imidazol-4-yl)-N1-((R)-1-(3-chlorophenyl)propyl)-N2-methyl-4-oxoazetidine-1,2-dicarboxamide], the “Ratio: Trypsin/FXIa” value with Trypsin is recorded as “G (“G” indicates 1-100)”. Further, the concentration for half-maximal inhibition (IC50) at Factor XIa was below 0.01 µM. For the same compound, the “Ratio: FXa/FXIa” value on Factor Xa was “H (“H” indicates 101-1000)”. For the same compound, the “Ratio: Thrombin/FXIa” value on Thrombin is on record as “G (“G” indicates 1-100)”.

For `CN(C(=O)[C@@H]1[C@@H](Cc2ccnc(N)c2)C(=O)N1C(=O)NCc1cccc(Cl)c1)c1ccn(C)n1` [Compound 1-26, (2S,3R)-3-((2-aminopyridin-4-yl)methyl)-N2-(1-methyl-1H-pyrazol-3-yl)-N1-((3-chlorophenyl)methyl)-N2-methyl-4-oxoazetidine-1,2-dicarboxamide], the “Ratio: Trypsin/FXIa” value in the assay with Trypsin was “G (“G” indicates 1-100)”. Besides, at Factor XIa, the IC50 fell in the range of 0.01 to 0.1 µM. In addition, on Factor Xa, the “Ratio: FXa/FXIa” value was “H (“H” indicates 101-1000)”. In addition, at Thrombin, the “Ratio: Thrombin/FXIa” value is recorded as “G (“G” indicates 1-100)”.

On to `CC[C@@H](NC(=O)N1C(=O)[C@H](Cc2ccnc(N)c2)[C@H]1C(=O)N(C)c1cccs1)c1cccc(Cl)c1` [Compound 1-28, (2S,3R)-3-((2-aminopyridin-4-yl)methyl)-N2-(thiophen-2-yl)-N1-((R)-1-(3-chlorophenyl)propyl)-N2-methyl-4-oxoazetidine-1,2-dicarboxamide], for which the “Ratio: Trypsin/FXIa” value in the assay with Trypsin is given as “G (“G” indicates 1-100)”. On Factor XIa, the IC50 is below 0.01 µM. Besides, on Factor Xa, the “Ratio: FXa/FXIa” value is recorded as “G (“G” indicates 1-100)”. In addition, the “Ratio: Thrombin/FXIa” value on Thrombin is recorded as “H (“H” indicates 101-1000)”.

In the case of `CN(C(=O)[C@@H]1[C@@H](Cc2ccnc(N)c2)C(=O)N1C(=O)N[C@@H](c1ccccc1)C(F)(F)F)c1ccn(C)n1` [Compound 1-31, (2S,3R)-3-((2-aminopyridin-4-yl)methyl)-N2-(1-methyl-1H-pyrazol-3-yl)-N1-((S)-1-phenyl-2,2,2-trifluoroethyl)-N2-methyl-4-oxoazetidine-1,2-dicarboxamide], the “Ratio: Trypsin/FXIa” value with Trypsin was “G (“G” indicates 1-100)”. In addition, the concentration for half-maximal inhibition (IC50) on Factor XIa lay in the range of 0.01 to 0.1 µM. Further, the “Ratio: FXa/FXIa” value on Factor Xa was “H (“H” indicates 101-1000)”. Besides, the “Ratio: Thrombin/FXIa” value at Thrombin is recorded as “G (“G” indicates 1-100)”.

Consider `CC[C@@H](NC(=O)N1C(=O)[C@H](Cc2ccnc(NC)c2)[C@H]1C(=O)N(C)c1ccn(C)n1)c1cccc(Cl)c1` [Compound 1-37, (2S,3R)-3-((2-methylaminopyridin-4-yl)methyl)-N2-(1-methyl-1H-pyrazol-3-yl)-N1-((R)-1-(3-chlorophenyl)propyl)-N2-methyl-4-oxoazetidine-1,2-dicarboxamide], for which the “Ratio: Trypsin/FXIa” value with Trypsin is “G (“G” indicates 1-100)”. Moreover, the IC50 on Factor XIa was in the range of 0.01 to 0.1 µM. Moreover, the “Ratio: FXa/FXIa” value on Factor Xa is recorded as “H (“H” indicates 101-1000)”. Further, at Thrombin, the “Ratio: Thrombin/FXIa” value is recorded as “H (“H” indicates 101-1000)”.

As to `CC[C@@H](NC(=O)N1C(=O)[C@H](Cc2ccnc(NC)c2)[C@H]1C(=O)N(C)c1cccs1)c1cccc(Cl)c1` [Compound 1-44, (2S,3R)-3-((2-methylaminopyridin-4-yl)methyl)-N2-(thiophen-2-yl)-N1-((R)-1-(3-chlorophenyl)propyl)-N2-methyl-4-oxoazetidine-1,2-dicarboxamide], the “Ratio: Trypsin/FXIa” value in the assay on Trypsin is “G (“G” indicates 1-100)”. For the same compound, the IC50 on Factor XIa was below 0.01 µM. The “Ratio: FXa/FXIa” value at Factor Xa is given as “H (“H” indicates 101-1000)”. Moreover, the “Ratio: Thrombin/FXIa” value at Thrombin was “H (“H” indicates 101-1000)”.

As to `CC[C@@H](NC(=O)N1C(=O)[C@H](Cc2cc(C)nc(N)c2)[C@H]1C(=O)N(C)c1cn(C)cn1)c1ccccc1` [Compound 1-52, (2S,3R)-3-((2-amino-6-methylpyridin-4-yl)methyl)-N2-(1-methyl-1H-imidazol-4-yl)-N1-((R)-1-phenylpropyl)-N2-methyl-4-oxoazetidine-1,2-dicarboxamide], the “Ratio: Trypsin/FXIa” value in the assay with Trypsin is on record as “G (“G” indicates 1-100)”. On Factor XIa, the IC50 was 0.01 to 0.1 µM. For the same compound, the “Ratio: FXa/FXIa” value at Factor Xa is on record as “H (“H” indicates 101-1000)”. Also, the “Ratio: Thrombin/FXIa” value at Thrombin was “G (“G” indicates 1-100)”.

As for `CC[C@@H](NC(=O)N1C(=O)[C@H](Cc2ccnc(N)c2)[C@H]1C(=O)N(C)c1cnn(C)c1)C1CCCCC1` [Compound 1-69, (2S,3R)-3-((2-aminopyridin-4-yl)methyl)-N2-(1-methyl-1H-pyrazol-4-yl)-N1-((R)-1-cyclohexylpropyl)-N2-methyl-4-oxoazetidine-1,2-dicarboxamide], the “Ratio: Trypsin/FXIa” value with Trypsin was “G (“G” indicates 1-100)”. The IC50 at Factor XIa lay in the range of 0.01 to 0.1 µM. Besides, at Factor Xa, the “Ratio: FXa/FXIa” value was “H (“H” indicates 101-1000)”. The “Ratio: Thrombin/FXIa” value on Thrombin is “G (“G” indicates 1-100)”.

Regarding `CC[C@@H](NC(=O)N1C(=O)[C@H](Cc2ccnc(N)c2)[C@H]1C(=O)N(C)c1cn(C)cn1)C1CCCCC1` [Compound 1-71, (2S,3R)-3-((2-aminopyridin-4-yl)methyl)-N2-(1-methyl-1H-imidazol-4-yl)-N1-((R)-1-cyclohexylpropyl)-N2-methyl-4-oxoazetidine-1,2-dicarboxamide], in the assay with Trypsin, the “Ratio: Trypsin/FXIa” value is recorded as “G (“G” indicates 1-100)”. The IC50 at Factor XIa is below 0.01 µM. Also, the “Ratio: FXa/FXIa” value at Factor Xa is “I (“I” indicates > 500)”. The “Ratio: Thrombin/FXIa” value on Thrombin is “G (“G” indicates 1-100)”.

Turning to `CC[C@@H](NC(=O)N1C(=O)[C@H](Cc2cc(C)nc(NC)c2)[C@H]1C(=O)N(C)c1cn(C)cn1)c1ccccc1` [Compound 1-72, (2S,3R)-3-((2-methylamino-6-methylpyridin-4-yl)methyl)-N2-(1-methyl-1H-imidazol-4-yl)-N1-((R)-1-phenylpropyl)-N2-methyl-4-oxoazetidine-1,2-dicarboxamide], in the assay with Trypsin, the “Ratio: Trypsin/FXIa” value is given as “G (“G” indicates 1-100)”. On Factor XIa, the IC50 lay in the range of 0.01 to 0.1 µM. Moreover, on Factor Xa, the “Ratio: FXa/FXIa” value is recorded as “H (“H” indicates 101-1000)”. Besides, the “Ratio: Thrombin/FXIa” value at Thrombin is listed as “G (“G” indicates 1-100)”.
